What was measured:
[1] = Unbound plasma concentration in P-gp knock out Sprague-Dawley rat at 5 mg/ml/kg, po measured upto 4 hrs by LC-MS analysis
[2] = Unbound brain concentration in P-gp knock out Sprague-Dawley rat at 5 mg/ml/kg, po measured upto 4 hrs by LC-MS analysis; conditions: in vivo
[3] = Ratio of drug concentration in brain to plasma of P-gp knock out Sprague-Dawley rat
[4] = Unbound brain-to-plasma concentration ratio in P-gp knock out Sprague-Dawley rat

CC(C)(C)NC(=O)[C@@H]1C[C@@H]2CCCC[C@@H]2CN1C[C@@H](O)[C@H](Cc1ccccc1)NC(=O)[C@H](CC(N)=O)NC(=O)c1ccc2ccccc2n1
fraction unbound at 4 h ([1]; plasma): 0.005
Fu [2]: 0.006
Kp ([3]; brain): 0.067
Kp uu ([4]; brain): 0.014

CC(C)CN(C[C@@H](O)[C@H](Cc1ccccc1)NC(=O)O[C@H]1CCOC1)S(=O)(=O)c1ccc(N)cc1
fraction unbound at 4 h ([1]; plasma): 0.129

O=C(O)CCCN1CCC(OC(c2ccc(Cl)cc2)c2ccccn2)CC1 (configuration not stated)
fraction unbound at 4 h ([1]; plasma): 0.642
Kp ([3]; brain/plasma): 0.031
Kp uu ([4]; brain/plasma): 0.018

Cc1c(O)cccc1C(=O)N[C@@H](CSc1ccccc1)[C@H](O)CN1C[C@H]2CCCC[C@H]2C[C@H]1C(=O)NC(C)(C)C
fraction unbound at 4 h ([1]; plasma): 0.003
Kp uu ([4]; brain/plasma): 0.007

CN1CC[C@H](c2c(O)cc(O)c3c(=O)cc(-c4ccccc4Cl)oc23)[C@H](O)C1 [ALVOCIDIB]
fraction unbound at 4 h ([1]; plasma): 0.051
Kp ([3]; brain/plasma): 0.451
Kp uu ([4]; brain/plasma): 0.234

COc1ccc(CCN2CCC(Nc3nc4ccccc4n3Cc3ccc(F)cc3)CC2)cc1 [ASTEMIZOLE]
fraction unbound at 4 h ([1]; in vivo): 0.011
Fu [2]: 0.004
Kp ([3]; brain): 38.9
Kp uu ([4]; brain): 0.577

CC[C@H]1OC(=O)[C@H](C)[C@@H](O[C@H]2C[C@@](C)(OC)[C@@H](O)[C@H](C)O2)[C@H](C)[C@@H](O[C@@H]2O[C@H](C)C[C@H](N(C)C)[C@H]2O)[C@](C)(OC)C[C@@H](C)C(=O)[C@H](C)[C@@H](O)[C@]1(C)O [CLARITHROMYCIN]
fraction unbound at 4 h ([1]; in vivo): 0.377
Fu [2]: 0.113
Kp ([3]; brain): 1.96
Kp uu ([4]; brain): 0.014

C[C@@H](Oc1cc(-c2cnn(C3CCNCC3)c2)cnc1N)c1c(Cl)ccc(F)c1Cl [CRIZOTINIB]
fraction unbound at 4 h ([1]; plasma): 0.03
Kp ([3]; brain/plasma): 5.55
Kp uu ([4]; brain/plasma): 0.017

Cc1nc(Nc2ncc(C(=O)Nc3c(C)cccc3Cl)s2)cc(N2CCN(CCO)CC2)n1.O [DASATINIB]
fraction unbound at 4 h ([1]; plasma): 0.026
Fu [2]: 0.013
Kp ([3]; brain): 0.061
Kp uu ([4]; brain): 0.016

Clc1ccc2c(c1)CCc1cccnc1C2=C1CCNCC1 [DESLORATADINE]
fraction unbound at 4 h ([1]; plasma): 0.19
Kp uu ([4]; brain/plasma): 0.061

C[C@@H]1C[C@H]2[C@@H]3CCC4=CC(=O)C=C[C@]4(C)[C@@]3(F)[C@@H](O)C[C@]2(C)[C@@]1(O)C(=O)CO [DEXAMETHASONE]
fraction unbound at 4 h ([1]; plasma): 0.159

C[C@H]1O[C@@H](O[C@H]2[C@@H](O)C[C@H](O[C@H]3[C@@H](O)C[C@H](O[C@H]4CC[C@@]5(C)[C@H](CC[C@@H]6[C@@H]5C[C@@H](O)[C@]5(C)[C@@H](C7=CC(=O)OC7)CC[C@]65O)C4)O[C@@H]3C)O[C@@H]2C)C[C@H](O)[C@@H]1O [DIGOXIN]
fraction unbound at 4 h ([1]; in vivo): 0.583

CC(C)N(CCC(C(N)=O)(c1ccccc1)c1ccccn1)C(C)C (configuration not stated) [DISOPYRAMIDE]
fraction unbound at 4 h ([1]; in vivo): 0.669
Fu [2]: 0.491
Kp ([3]; brain): 1.02
Kp uu ([4]; brain): 0.036

O=c1[nH]c2ccccc2n1CCCN1CCC(n2c(=O)[nH]c3cc(Cl)ccc32)CC1 [DOMPERIDONE]
fraction unbound at 4 h ([1]; in vivo): 0.029
Fu [2]: 0.017

COc1cc([C@@H]2c3cc4c(cc3[C@@H](O[C@@H]3O[C@@H]5CO[C@@H](C)O[C@H]5[C@H](O)[C@H]3O)[C@H]3COC(=O)[C@H]23)OCO4)cc(OC)c1O [ETOPOSIDE]
fraction unbound at 4 h ([1]; in vivo): 0.357
Fu [2]: 0.539
Kp ([3]; brain): 0.037
Kp uu ([4]; brain): 0.024

Cc1ccc(NC(=O)c2ccc(CN3CCN(C)CC3)cc2)cc1Nc1nccc(-c2cccnc2)n1 [IMATINIB]
Kp uu ([4]; brain/plasma): 0.041

COc1ccc2c(c1)c(CC(=O)O)c(C)n2C(=O)c1ccc(Cl)cc1 [INDOMETHACIN]
fraction unbound at 4 h ([1]; plasma): 0.008
Fu [2]: 0.048
Kp ([3]; brain): 0.009
Kp uu ([4]; brain): 0.074

CCN(CC)CCNC(=O)c1cc(Cl)c(N)cc1OC [METOCLOPRAMIDE]
fraction unbound at 4 h ([1]; in vivo): 0.677
Fu [2]: 0.817
Kp ([3]; brain): 5.05
Kp uu ([4]; brain): 2.45

Cc1nc2n(c(=O)c1CCN1CCC(c3noc4cc(F)ccc34)CC1)CCCC2O (configuration not stated) [PALIPERIDONE]
fraction unbound at 4 h ([1]; plasma): 0.047
Kp ([3]; brain/plasma): 0.867
Kp uu ([4]; brain/plasma): 0.443

COc1cc2nc(N3CCN(C(=O)c4ccco4)CC3)nc(N)c2cc1OC [PRAZOSIN]
fraction unbound at 4 h ([1]; plasma): 0.264
Kp ([3]; brain/plasma): 0.247
Kp uu ([4]; brain/plasma): 0.164

C=C[C@H]1C[N@@]2CC[C@H]1C[C@@H]2[C@@H](O)c1ccnc2ccc(OC)cc12 [QUINIDINE]
Kp uu ([4]; brain): 0.065

Cc1nc2n(c(=O)c1CCN1CCC(c3noc4cc(F)ccc34)CC1)CCCC2 [RISPERIDONE]
Fu ([1]; in vivo, 4 h): 0.033
Fu [2]: 0.12
Kp ([3]; brain): 1.56
Kp uu ([4]; brain/plasma): 1.38

CC[C@H](CO)Nc1nc(NCc2ccccc2)c2ncn(C(C)C)c2n1 [SELICICLIB]
fraction unbound at 4 h ([1]; plasma): 0.048
Kp ([3]; brain/plasma): 1.26
Kp uu ([4]; brain/plasma): 0.205

CCN(CC)CCNC(=O)c1c(C)[nH]c(/C=C2\C(=O)Nc3ccc(F)cc32)c1C [SUNITINIB]
fraction unbound at 4 h ([1]; plasma): 0.007
Kp ([3]; brain/plasma): 0.481
Kp uu ([4]; brain/plasma): 0.414

CN(C)CCc1c[nH]c2ccc(C[C@H]3COC(=O)N3)cc12 [ZOLMITRIPTAN]
fraction unbound at 4 h ([1]; in vivo): 0.942
Fu [2]: 1
Kp ([3]; brain): 0.043
Kp uu ([4]; brain): 0.035

Reference: ChEMBL document CHEMBL4823245, “Development of an In Silico Prediction Model for P-glycoprotein Efflux Potential in Brain Capillary Endothelial Cells toward the Prediction of Brain Penetration” (J Med Chem, 2021)
